Experiments:
Format in all cases: in vivo, human
[1] = tested on: adult subjects with relapsing MS; test: Pulmonary function (percent predicted FEV1), Study 1
Experimental: In Study 1, the reduction from baseline in percent predicted FEV1 at 2 years was 8.3% in PONVORY-treated patients compared to 4.4% in patients receiving teriflunomide 14 mg. In Study 1, 7 patients discontinued PONVORY because of pulmonary adverse events. There is insufficient information to determine the reversibility of the decrease in FEV1 or FVC after treatment discontinuation. PONVORY should be used with caution in patients with severe respiratory disease (i.e., pulmonary fibrosis, asthma, and chronic obstructive pulmonary disease). Spirometric evaluation of respiratory function should be performed during therapy with PONVORY if clinically indicated.

[2] = tested on: adult subjects with relapsing MS; test: EDSS, time to first 12-week / 24-week confirmed disability accumulation (CDA); conditions: for Hazard ratio, time to first 12-week CDA (3-month CDP), ponesimod vs teriflunomide: stratified Cox regression
From the text: (§1) A 12-week CDA is an increase of at least 1.5 in EDSS for subjects with a baseline EDSS score of 0.0 or an increase of at least 1.0 in EDSS for subjects with a baseline EDSS score of 1.0 to 5.0, or an increase of at least 0.5 in EDSS for subjects with a baseline EDSS score≥5.5 which is to be confirmed after 12 weeks.
All EDSS measurements (with or without relapse, at a scheduled or unscheduled visit) were used to determine the onset of disability accumulation. However, EDSS scores used for confirmation of disability accumulation were obtained at a scheduled visit (i.e., unscheduled visits cannot be used as confirmatory visits) outside any ongoing relapse. In this context, relapse duration is defined as period between start and end dates if available and limited to 90 days from onset if end date is not available or duration is longer than 90 days.
In order to confirm that the EDSS increase is persistent, all EDSS measurements between the onset and the 12-week EDSS confirmation (minus 7-day visit time-window) need to show an increase in EDSS, meeting the criteria for accumulation of disability as defined above.
as §1, with “24-week” for “12-week”, “24” for “12”
The primary endpoint was the annualized relapse rate (ARR) over the study period. Additional outcome measures included: 1) the number of new Gd-enhancing T1 lesions from baseline to Week 108, 2) the number of new or enlarging T2 lesions (without double-counting of lesions) from baseline to Week 108, and 3) the time to 3-month and 6-month confirmed disability progression. A confirmed disability progression was defined as an increase of at least 1.5 in EDSS for patients with a baseline EDSS score of 0, an increase of at least 1.0 in EDSS for patients with a baseline EDSS score of 1.0 to 5.0, or an increase of at least 0.5 in EDSS for patients with a baseline EDSS score at least 5.5, which was confirmed after 3 months and 6 months.

[3] = tested on: adult subjects with relapsing MS; test: Treatment-emergent adverse events and premature treatment discontinuation, phase III study (Study 1); conditions: in vivo
Experimental: A total of 1438 MS patients have received PONVORY at doses of at least 2 mg daily. These patients were included in Study 1 (2-year active-controlled versus teriflunomide 14 mg) [see Clinical Studies (14)] and in a Phase 2 (6-month placebo-controlled) study in patients with MS and the uncontrolled extension studies.

Question: Which “Patients who discontinued because of pulmonary adverse events” value [1] does the source give for `CCC/N=C1\S/C(=C\c2ccc(OC[C@H](O)CO)c(Cl)c2)C(=O)N1c1ccccc1C` [Ponesimod, (R)-5-[3-chloro-4-(2,3-dihydroxy-propoxy)-benz[Z]ylidene]-2-([Z]-propylimino)-3-o-tolyl-thiazolidin-4-one] here?
Answer: 7

Question: And the “Reduction from baseline in percent predicted FEV1 at 2 years” value [1]?
Answer: 8.3%

Question: What about the “Proportion of Patients with 3-month Confirmed Disability Progression” value ([2]; Kaplan-Meier estimates at Week 108) of the same molecule?
Answer: 10.8%

Question: And the “Hazard ratio, time to first 24-week CDA, ponesimod vs teriflunomide” value ([2]; exploratory)?
Answer: 0.84

Question: What about the “Reduction of risk of 12-week CDA compared to teriflunomide 14 mg” value ([2]; not statistically significant) of the same molecule?
Answer: 17%

Question: What about the “Reduction of risk of 24-week CDA compared to teriflunomide 14 mg” value ([2]; not statistically significant) of the same molecule?
Answer: 16%

Question: What about the “Hazard ratio, time to first 12-week CDA (3-month CDP), ponesimod vs teriflunomide” value (shortened to “Hazard ratio, time to first 12-week CDA”) [2] of the same molecule?
Answer: 0.83

Question: What about the “Hazard ratio, time to first 12-week CDA” value ([2]; listed as PONVORY) of the same molecule?
Answer: 0.83 (p = 0.29)

Question: And the “Hazard ratio, time to first 12-week CDA” value ([2]; listed as ponesimod)?
Answer: 0.83

Question: And the “Subjects with 12-week CDA” value ([2]; up to EOS)?
Answer: 10.1%

Question: And the “Subjects with 24-week CDA” value ([2]; up to EOS)?
Answer: 8.1%

Question: What about the “Day 1 AESI Atrioventricular block first degree” value ([3]; human) of the same molecule?
Answer: (0.5) %

Question: What about the “Day 1 AESI Bradycardia” value ([3]; human) of the same molecule?
Answer: (0.7) %

Question: What about the “Day 1 AESI Bundle branch block left” value ([3]; human) of the same molecule?
Answer: (0.2) %

Question: What about the “Day 1 AESI Bundle branch block right” value ([3]; human) of the same molecule?
Answer: (0.2) %

Question: And the “Day 1 AESI Defect conduction intraventricular” value ([3]; human)?
Answer: (0.4) %

Question: What about the “Day 1 AESI Sinus arrhythmia” value ([3]; human) of the same molecule?
Answer: (0.2) %

Question: And the “Day 1 AESI Sinus bradycardia” value ([3]; human)?
Answer: (0.2) %

Question: What about the “AE leading to discontinuation, SOC Blood and lymphatic system disorders” value ([3]; human, 2 year) of the same molecule?
Answer: (0.5) %

Question: And the “AE leading to discontinuation, SOC Cardiac disorders” value ([3]; human, 2 year)?
Answer: (0.2) %

Question: What about the “AE leading to discontinuation, SOC Eye disorders” value ([3]; human, 2 year) of the same molecule?
Answer: (0.9) %

Question: And the “AE leading to discontinuation, SOC Gastrointestinal disorders” value ([3]; human, 2 year)?
Answer: (0.7) %

Question: What about the “AE leading to discontinuation, SOC General disorders and administration site conditions” value ([3]; human, 2 year) of the same molecule?
Answer: (0.5) %

Question: What about the “AE leading to discontinuation, SOC Hepatobiliary disorders” value ([3]; human, 2 year) of the same molecule?
Answer: (0.5) %

Question: What about the “AE leading to discontinuation, SOC Investigations” value ([3]; human, 2 year) of the same molecule?
Answer: (2.1) %

Question: And the “AE leading to discontinuation, SOC Musculoskeletal and connective tissue disorders” value ([3]; human, 2 year)?
Answer: (0.2) %

Question: And the “AE leading to discontinuation, SOC Neoplasms benign, malignant and unspecified (incl cysts and polyps)” value ([3]; human, 2 year)?
Answer: (0.2) %

Question: And the “AE leading to discontinuation, SOC Nervous system disorders” value ([3]; human, 2 year)?
Answer: (0.4) %

Question: And the “AE leading to discontinuation, SOC Pregnancy, puerperium and perinatal conditions” value ([3]; human, 2 year)?
Answer: (0.5) %

Question: And the “AE leading to discontinuation, SOC Psychiatric disorders” value ([3]; human, 2 year)?
Answer: (0.2) %

Question: And the “AE leading to discontinuation, SOC Respiratory, thoracic and mediastinal disorders” value ([3]; human, 2 year)?
Answer: (1.2) %

Question: What about the “AE leading to discontinuation, SOC Skin and subcutaneous tissue disorders” value ([3]; human, 2 year) of the same molecule?
Answer: (0.2) %

Question: And the “AE leading to discontinuation, SOC Social circumstances” value ([3]; human, 2 year)?
Answer: (0.4) %

Question: And the “AE leading to discontinuation, SOC Vascular disorders” value ([3]; human, 2 year)?
Answer: (0.5) %

Question: What about the “AESI Effect on heart rate and rhythm (including hypotension)” value ([3]; human, 2 year) of the same molecule?
Answer: (5.1) %

Question: And the “AESI Non-skin malignancy” value ([3]; human, 2 year)?
Answer: (0.2) %

Question: What about the “AESI Skin malignancy” value ([3]; human, 2 year) of the same molecule?
Answer: (0.9) %

Question: What about the “Discontinuation reason: Physician decision, Adverse event” value ([3]; human, 2 year) of the same molecule?
Answer: (5.1) %

Question: And the “Discontinuation reason: Pre-specified study treatment discontinuation criteria” value ([3]; human, 2 year)?
Answer: (2.1) %

Question: What about the “Discontinuation reason: Subject decision, Tolerability related” value ([3]; human, 2 year) of the same molecule?
Answer: (1.4) %

Question: What about the “Incidence of basal cell carcinoma” value ([3]; human, 2 year) of the same molecule?
Answer: 0.4%

Question: And the “Overall rate of infections” value ([3]; human, 2 year)?
Answer: 54.2%

Question: What about the “Subjects discontinued due to AEs or tolerability related reasons” value ([3]; human, 2 year) of the same molecule?
Answer: 6.5%

Question: And the “Subjects who prematurely discontinued study treatment” value ([3]; human, 2 year)?
Answer: (16.6) %

Question: What about the “Subjects with at least one Drug-Related AE” value ([3]; human, 2 year) of the same molecule?
Answer: (49.2) %

Question: What about the “Subjects with at least one Severe AE” value ([3]; human, 2 year) of the same molecule?
Answer: (6.9) %

Question: What about the “TEAE ALT increased” value ([3]; human, 2 year) of the same molecule?
Answer: 19.5%

Question: What about the TEAE headache ([3]; human, 2 year) of the same molecule?
Answer: 11.5%

Question: And the TEAE nasopharyngitis ([3]; human, 2 year)?
Answer: 19.3%

Question: And the “TEAE upper respiratory tract infection” value ([3]; human, 2 year)?
Answer: 10.6%

Question: What about the “Adverse reaction: C-reactive protein increased” value ([3]; human, 2 years) of the same molecule?
Answer: 2%

Question: What about the “Adverse reaction: Cough” value ([3]; human, 2 years) of the same molecule?
Answer: 4%

Question: What about the “Adverse reaction: Dizziness” value ([3]; human, 2 years) of the same molecule?
Answer: 5%

Question: What about the “Adverse reaction: Dyspnea” value ([3]; human, 2 years) of the same molecule?
Answer: 5%

Question: What about the “Adverse reaction: Hepatic transaminase elevation” value ([3]; human, 2 years) of the same molecule?
Answer: 23%

Question: What about the “Adverse reaction: Hypercholesterolemia” value ([3]; human, 2 years) of the same molecule?
Answer: 2%

Question: And the “Adverse reaction: Hypertension” value ([3]; human, 2 years)?
Answer: 10%

Question: What about the “Adverse reaction: Pain in extremity” value ([3]; human, 2 years) of the same molecule?
Answer: 4%

Question: What about the “Adverse reaction: Pyrexia” value ([3]; human, 2 years) of the same molecule?
Answer: 2%

Question: And the “Adverse reaction: Somnolence” value ([3]; human, 2 years)?
Answer: 3%

Question: What about the “Adverse reaction: Urinary tract infection” value ([3]; human, 2 years) of the same molecule?
Answer: 6%

Question: And the “Adverse reaction: Vertigo” value ([3]; human, 2 years)?
Answer: 2%

Question: What about the “Discontinuation reason: Lost to follow-up” value [3] of the same molecule?
Answer: (0.4) %

Question: And the “Discontinuation reason: Physician decision” value [3]?
Answer: (7.1) %

Question: And the “Discontinuation reason: Physician decision, Lack of efficacy/treatment failure” value [3]?
Answer: (0.7) %

Question: What about the “Discontinuation reason: Physician decision, Other” value [3] of the same molecule?
Answer: (1.2) %

Question: What about the “Discontinuation reason: Reason not provided” value [3] of the same molecule?
Answer: (0.2) %

Question: What about the “Discontinuation reason: Subject decision” value [3] of the same molecule?
Answer: (6.9) %

Question: And the “Discontinuation reason: Subject decision, Efficacy related” value [3]?
Answer: (1.2) %

Question: And the “Discontinuation reason: Subject decision, Not known” value [3]?
Answer: (0.9) %

Question: And the “Discontinuation reason: Subject decision, Other” value [3]?
Answer: (3.4) %

— patent publication US12419869B2, “Methods of treating multiple sclerosis” (Vanda Pharmaceuticals Inc., priority 2021, dated 2025)
